Laboratory results from the NIST ThermoML archive (doi:10.1021/je8002282).

How the values were obtained:
[1] = xn = mol fraction of the nth substance listed; details: Liquid
[2] = Liquid

[C-]#[O+] [carbon monoxide] + COC(=O)OC
[1], Pycnometric method
Details | mass density [kg/m3]
293 K, x1 = 0.0547 | 1078
293 K, x1 = 0.0679 | 1036.5
293 K, x1 = 0.0838 | 992.5
293 K, x1 = 0.1138 | 963.5
293 K, x1 = 0.1413 | 919.7
293 K, x1 = 0.1606 | 865.9
313 K, x1 = 0.0534 | 966.4
313 K, x1 = 0.0646 | 948
313 K, x1 = 0.0868 | 910.2
313 K, x1 = 0.1087 | 885.7
313 K, x1 = 0.1199 | 834.8
313 K, x1 = 0.1511 | 786.6
353 K, x1 = 0.0485 | 868.7
353 K, x1 = 0.0677 | 853
353 K, x1 = 0.0752 | 847.4
353 K, x1 = 0.0873 | 802.4
353 K, x1 = 0.0936 | 773.3
353 K, x1 = 0.1204 | 720.7
373 K, x1 = 0.0418 | 841.2
373 K, x1 = 0.0545 | 829.8
373 K, x1 = 0.0723 | 801.3
373 K, x1 = 0.084 | 786.7
373 K, x1 = 0.0943 | 754.3
373 K, x1 = 0.1095 | 710.1

COC(=O)OC [dimethyl carbonate]
[2]
Details | vapor or sublimation pressure [kPa]
293 K | 10
313 K | 20
353 K | 70
373 K | 140

COC [dimethyl ether]
[2]
Details | vapor or sublimation pressure [kPa]
293 K | 520
313 K | 900
353 K | 2240
373 K | 3260

O=O [oxygen] + COC(=O)OC
[1], determining using the ratio of the masses to the volume of the sample.
Details | mass density [kg/m3]
293.15 K, x1 = 0.0612 | 1087.6
293.15 K, x1 = 0.0791 | 1062.4
293.15 K, x1 = 0.097 | 1032
293.15 K, x1 = 0.1266 | 984.7
293.15 K, x1 = 0.1605 | 931.3
293.15 K, x1 = 0.1977 | 838
313 K, x1 = 0.0506 | 1056.6
313 K, x1 = 0.061 | 1014.8
313 K, x1 = 0.0748 | 960.2
313 K, x1 = 0.099 | 885.7
313 K, x1 = 0.1307 | 824.8
313 K, x1 = 0.175 | 766.6
353 K, x1 = 0.0412 | 988.5
353 K, x1 = 0.0523 | 947.8
353 K, x1 = 0.0614 | 882.2
353 K, x1 = 0.0733 | 826.7
353 K, x1 = 0.082 | 728.8
353 K, x1 = 0.1018 | 685.3
373 K, x1 = 0.0233 | 935.5
373 K, x1 = 0.0347 | 900.2
373 K, x1 = 0.0539 | 841.3
373 K, x1 = 0.071 | 798.9
373 K, x1 = 0.0858 | 712.5
373 K, x1 = 0.0953 | 652.5
